Results on 8 compounds are retold here after patent US8084395B2, “4-aza indole derivatives and their use as fungicides” (Syngenta Crop Protection, Inc., priority 2007, dated 2011).

With `Cc1cnc2c(-c3ccc(F)cc3)c(-c3ccncc3)[nH]c2c1` [Example 1, 3-(4-Fluoro-phenyl)-6-methyl-2-pyridin-4-yl-1H-pyrrolo[3,2-b]pyridine], the melting point (usually the temperature, or range, at which the solid turns liquid) lay in the range of 127 to 128 °C.

Compound `COCn1c(-c2ccncc2)c(-c2ccc(F)cc2)c2ncc(C)cc21` [Example 2, 3-(4-Fluoro-phenyl)-1-methoxymethyl-6-methyl-2-pyridin-4-yl-1H-pyrrolo[3,2-b]pyridine] came in with a melting point of 208 to 209 °C.

Turning to `COCOn1c(-c2ccncc2)c(-c2ccc(F)cc2)c2ncccc21` [Example 5, 3-(4-Fluoro-phenyl)-1-methoxymethoxy-2-pyridin-4-yl-1H-pyrrolo[3,2-b]pyridine], the melting point was 169 to 170 °C.

The compound `COC(=O)CC(=O)Nc1cc(-c2[nH]c3cc(C)cnc3c2-c2ccc(F)cc2)ccn1` [Example 8, N-{4-[3-(4-Fluoro-phenyl)-6-methyl-1H-pyrrolo[3,2-b]pyridin-2-yl]-pyridin-2-yl}-malonamic acid methyl ester] came in with a melting point of 237 to 238 °C.

With `FCCn1c(-c2ccnc(Nc3cccc(F)c3)c2)c(-c2ccc(F)cc2)c2ncccc21` [Example 9, {4-[1-(2-Fluoro-ethyl)-3-(4-fluoro-phenyl)-1H-pyrrolo[3,2-b]pyridin-2-yl]-pyridin-2-yl}-(3-fluoro-phenyl)-amine], the melting point lay within 255 to 256 °C.

Compound `NC(=O)c1cc(-c2[nH]c3cccnc3c2-c2ccc(F)cc2)ccn1` [Example 10, 4-[3-(4-Fluoro-phenyl)-1H-pyrrolo[3,2-b]pyridin-2-yl]-pyridine-2-carboxylic acid amide] returned a melting point of 157 to 158 °C.

With `Fc1ccc(-c2c(-c3ccncn3)[nH]c3cccnc23)cc1` [Example 11, 3-(4-Fluoro-phenyl)-2-pyrimidin-4-yl-1H-pyrrolo[3,2-b]pyridine], the melting point was in the range of 169 to 170 °C.

For `COCC(C)Nc1nccc(-c2c(-c3ccc(F)cc3)c3ncccc3n2COC)n1` (centres unmarked) [Example 12, {4-[3-(4-Fluoro-phenyl)-1-methoxymethyl-1H-pyrrolo[3,2-b]pyridin-2-yl]-pyrimidin-2-yl}-(2-methoxy-1-methyl-ethyl)-amine], the melting point was 151 to 152 °C.
